Converted amounts (≈) assume the structure as drawn. Like-named read-outs stand apart in the source and are kept apart here.
Legend:
MTB = conditions: cited from earlier work
Escherichia coli = assay: Antibacterial screening against E. coli; format: cell-based; conditions: read-out: E. coli IC50
[1] = system: M. tuberculosis H37Ra-lux; assay: microbe, parasite or virus in culture; format: cell-based, Mycobacterium tuberculosis; conditions: for IC50: read-out: M. tuberculosis H37Ra-lux IC50; for IC90: read-out: M. tuberculosis H37Ra-lux IC90
Staphylococcus aureus = assay: Antibacterial screening against S. aureus; format: cell-based; conditions: read-out: S. aureus IC50
MTB H37Rv = conditions: cited from earlier work
[2] = Mycobacterium tuberculosis, H37RA, 168 h

SMILES	IC50 (Escherichia coli)	IC50 [1, 2]	IC50 (Staphylococcus aureus; Staphylococcus aureus)	also measured
NC(=O)c1cnccn1 [PZA, Pyrazinamide]	–	–	–	IC90, anti-mycobacterial activity (MTB): > 20 µg/mL; MIC, anti-mycobacterial activity (MTB): 0.008 µg/mL (≈ 0.065 µM)
O=C(Nc1ccc(N2CCCN(C(=O)c3cnccn3)CC2)nc1)c1ccc(Br)cc1Cl [7i, 4-Bromo-2-chloro-N-(6-(4-(pyrazine-2-carbonyl)-1,4-diazepan-1-yl)pyridin-3-yl)benzamide]	> 64 µM	> 64 µM	> 64 µM	–
O=C(Nc1ccc(N2CCN(C(=O)c3cnccn3)CC2)nc1)c1ccccc1I [6i, 2-Iodo-N-(6-(4-(pyrazine-2-carbonyl)piperazin-1-yl)pyridin-3-yl)benzamide]	> 64 µM	> 64 µM	> 64 µM	–
O=C(Nc1ccc(N2CCCN(C(=O)c3cnccn3)CC2)nc1)c1cccc([N+](=O)[O-])c1 [7f, 3-Nitro-N-(6-(4-(pyrazine-2-carbonyl)-1,4-diazepan-1-yl)pyridin-3-yl)benzamide]	> 64 µM	> 64 µM	> 64 µM	–
O=C(NCCN1CCOCC1)c1cnccn1 [F, N-(2-morpholinoethyl)pyrazine-2-carboxamide]	–	–	–	MIC against MTB H37Rv (MTB H37Rv): 8.0 µg/mL (≈ 33.9 µM)
O=C(Nc1ccc(N2CCCN(C(=O)c3cnccn3)CC2)nc1)c1c(F)cccc1Cl [7m, 2-Chloro-6-fluoro-N-(6-(4-(pyrazine-2-carbonyl)-1,4-diazepan-1-yl)pyridin-3-yl)benzamide]	> 64 µM	> 64 µM	> 64 µM	–
O=C(Nc1ccc(N2CCN(C(=O)c3cnccn3)CC2)nc1)c1ccncc1 [6m, N-(6-(4-(Pyrazine-2-carbonyl)piperazin-1-yl)pyridin-3-yl)isonicotinamide]	> 64 µM	> 64 µM	> 64 µM	Anti-TB activity against M. tuberculosis H37Ra in words [1]: loss of activity
Cc1ccc(NC(=O)c2cnccn2)cc1I [C, N-(3-iodo-4-methylphenyl)pyrazine-2-carboxamide]	–	–	–	MIC, anti-mycobacterial activity (MTB): ≤ 0.002 µg/mL
O=C(Nc1ccc(N2CCCN(C(=O)c3cnccn3)CC2)nc1)c1ccccc1 [7a, N-(6-(4-(Pyrazine-2-carbonyl)-1,4-diazepan-1-yl)pyridin-3-yl)benzamide]	> 64 µM	> 64 µM	> 64 µM	–
O=C(Nc1ccc(N2CCCN(C(=O)c3cnccn3)CC2)nc1)c1ccncc1 [7l, N-(6-(4-(Pyrazine-2-carbonyl)-1,4-diazepan-1-yl)pyridin-3-yl)isonicotinamide]	> 64 µM	> 64 µM	> 64 µM	–
Cc1ccccc1C(=O)Nc1ccc(N2CCN(C(=O)c3cnccn3)CC2)nc1 [6h, 2-Methyl-N-(6-(4-(pyrazine-2-carbonyl)piperazin-1-yl)pyridin-3-yl)benzamide]	> 64 µM	1.82 µM	> 64 µM	IC90 [1]: 3.85 µM
O=C(Nc1ccc(N2CCN(C(=O)c3cnccn3)CC2)nc1)c1ccccc1 [6a, N-(6-(4-(Pyrazine-2-carbonyl)piperazin-1-yl)pyridin-3-yl)benzamide]	> 64 µM	1.46 µM	> 64 µM	–
C[C@H]1c2cccc(O)c2C(O)=C2C(=O)[C@]3(O)C(O)=C(C(N)=O)C(=O)[C@@H](N(C)C)[C@@H]3[C@@H](O)[C@@H]21 [Doxycyclin, reference compound]	–	–	–	IC50 (Staphylococcus aureus): 0.09 µM
NNC(=O)c1ccncc1 [Isoniazid, reference compound]	–	0.013 µM	–	–
O=C(Nc1ccc(N2CCCN(C(=O)c3cnccn3)CC2)nc1)c1ccc(Cl)cc1 [7d, 4-Chloro-N-(6-(4-(pyrazine-2-carbonyl)-1,4-diazepan-1-yl)pyridin-3-yl)benzamide]	> 64 µM	> 64 µM	> 64 µM	–
CC(C)(C)c1ccc(C(=O)Nc2ccc(N3CCCN(C(=O)c4cnccn4)CC3)nc2)cc1 [7c, 4-(tert-Butyl)-N-(6-(4-(pyrazine-2-carbonyl)-1,4-diazepan-1-yl)pyridin-3-yl)benzamide]	> 64 µM	> 64 µM	> 64 µM	–
O=C(Nc1ccc(N2CCCN(C(=O)c3cnccn3)CC2)nc1)c1cnccn1 [7k, N-(6-(4-(Pyrazine-2-carbonyl)-1,4-diazepan-1-yl)pyridin-3-yl)pyrazine-2-carboxamide]	> 64 µM	–	> 64 µM	–
O=C(Nc1ccc(N2CCCN(C(=O)c3cnccn3)CC2)nc1)c1ccc(Cl)cc1Cl [7j, 2,4-Dichloro-N-(6-(4-(pyrazine-2-carbonyl)-1,4-diazepan-1-yl)pyridin-3-yl)benzamide]	> 64 µM	> 64 µM	> 64 µM	–
COc1ccc(C(=O)Nc2ccc(N3CCN(C(=O)c4cnccn4)CC3)nc2)cc1 [6b, 4-Methoxy-N-(6-(4-(pyrazine-2-carbonyl)piperazin-1-yl)pyridin-3-yl)benzamide]	> 64 µM	> 64 µM	> 64 µM	–

SMILES	IC50 (Escherichia coli)	IC50 [1, 2]	IC50 (Staphylococcus aureus; Staphylococcus aureus)	also measured
O=C(Nc1ccc(N2CCN(C(=O)c3cnccn3)CC2)nc1)c1c(Cl)cccc1Br [6j, 2-Bromo-6-chloro-N-(6-(4-(pyrazine-2-carbonyl)piperazin-1-yl)pyridin-3-yl)benzamide]	> 64 µM	1.82 µM	> 64 µM	IC50 [1]: 2.14 µM; IC90 [1]: 3.94 µM
O=C(Nc1ccc(N2CCN(C(=O)c3cnccn3)CC2)nc1)c1cccc(Br)c1 [6g, 3-Bromo-N-(6-(4-(pyrazine-2-carbonyl)piperazin-1-yl)pyridin-3-yl)benzamide]	> 64 µM	> 64 µM	> 64 µM	Anti-TB activity against M. tuberculosis H37Ra in words [1]: inactive
O=C(Nc1ccc(N2CCCN(C(=O)c3cnccn3)CC2)nc1)c1ccccc1I [7h, 2-Iodo-N-(6-(4-(pyrazine-2-carbonyl)-1,4-diazepan-1-yl)pyridin-3-yl)benzamide]	> 64 µM	> 64 µM	> 64 µM	–
O=C(Nc1ccc(N2CCN(C(=O)c3cnccn3)CC2)nc1)c1ccc(Br)cc1Cl [6k, 4-Bromo-2-chloro-N-(6-(4-(pyrazine-2-carbonyl)piperazin-1-yl)pyridin-3-yl)benzamide]	> 64 µM	1.35 µM	> 64 µM	–
O=C(Nc1ccc(N2CCN(C(=O)c3cnccn3)CC2)nc1)c1ccc(Cl)cc1Cl [6l, 2,4-Dichloro-N-(6-(4-(pyrazine-2-carbonyl)piperazin-1-yl)pyridin-3-yl)benzamide]	> 64 µM	> 64 µM	> 64 µM	Anti-TB activity against M. tuberculosis H37Ra in words [1]: inactive
O=C(NCCN1CCNCC1)c1cnccn1 [E, N-(2-(piperazin-1-yl)ethyl)pyrazine-2-carboxamide]	–	–	–	MIC against MTB H37Rv (MTB H37Rv): 12.2 µg/mL (≈ 51.9 µM)
O=C(Nc1ccc(N2CCN(C(=O)c3cnccn3)CC2)nc1)c1cccc([N+](=O)[O-])c1 [6f, 3-Nitro-N-(6-(4-(pyrazine-2-carbonyl)piperazin-1-yl)pyridin-3-yl)benzamide]	> 64 µM	> 64 µM	> 64 µM	Anti-TB activity against M. tuberculosis H37Ra in words [1]: inactive
Cc1ccc(NC(=O)c2cnc(C(C)(C)C)c(Cl)n2)cc1I [D, 5-(tert-Butyl)-6-chloro-N-(3-iodo-4-methylphenyl)pyrazine-2-carboxamide]	–	–	–	IC50, anti-mycobacterial activity (MTB): 0.728 µg/mL (≈ 1.69 µM); IC90, anti-mycobacterial activity (MTB): 0.819 µg/mL (≈ 1.91 µM)
O=C(Nc1ccc(N2CCCN(C(=O)c3cnccn3)CC2)nc1)c1cccc(Br)c1 [7g, 3-Bromo-N-(6-(4-(pyrazine-2-carbonyl)-1,4-diazepan-1-yl)pyridin-3-yl)benzamide]	> 64 µM	> 64 µM	> 64 µM	–
CCn1cc(C(=O)O)c(=O)c2cc(F)c(N3CCNCC3)cc21 [Norfloxacin, reference compound]	0.38 µM	–	–	–
CC(C)(C)c1ccc(C(=O)Nc2ccc(N3CCN(C(=O)c4cnccn4)CC3)nc2)cc1 [6c, 4-(tert-Butyl)-N-(6-(4-(pyrazine-2-carbonyl)piperazin-1-yl)pyridin-3-yl)benzamide]	> 64 µM	> 64 µM	> 64 µM	–
O=C(Nc1ccc(C(F)(F)F)cc1)c1cnccn1 [A, N-(4-(trifluoromethyl)phenyl)pyrazine-2-carboxamide]	–	–	–	MIC, anti-mycobacterial activity (MTB): ≤ 0.002 µg/mL
O=C(Nc1ccc(N2CCCN(C(=O)c3cnccn3)CC2)nc1)c1ccc(Br)cc1 [7e, 4-Bromo-N-(6-(4-(pyrazine-2-carbonyl)-1,4-diazepan-1-yl)pyridin-3-yl)benzamide]	> 64 µM	2.12 µM	> 64 µM	–
Cc1cccc(NC(=O)c2cnccn2)c1Br [B, N-(2-bromo-3-methylphenyl)pyrazine-2-carboxamide]	–	–	–	MIC, anti-mycobacterial activity (MTB): ≤ 0.002 µg/mL
O=C(Nc1ccc(N2CCN(C(=O)c3cnccn3)CC2)nc1)c1ccc(Cl)cc1 [6d, 4-Chloro-N-(6-(4-(pyrazine-2-carbonyl)piperazin-1-yl)pyridin-3-yl)benzamide]	> 64 µM	> 64 µM	> 64 µM	–
CCOc1ccc(C(=O)Nc2ccc(N3CCCN(C(=O)c4cnccn4)CC3)nc2)cc1 [7b, 4-Ethoxy-N-(6-(4-(pyrazine-2-carbonyl)-1,4-diazepan-1-yl)pyridin-3-yl)benzamide]	> 64 µM	> 64 µM	> 64 µM	–
O=C(Nc1ccc(N2CCN(C(=O)c3cnccn3)CC2)nc1)c1ccc(Br)cc1 [6e, 4-Bromo-N-(6-(4-(pyrazine-2-carbonyl)piperazin-1-yl)pyridin-3-yl)benzamide]	> 64 µM	2.18 µM	> 64 µM	–
O=C(Nc1ccc(N2CCN(C(=O)c3cnccn3)CC2)nc1)c1cnccn1 [6n, N-(6-(4-(Pyrazine-2-carbonyl)piperazin-1-yl)pyridin-3-yl)pyrazine-2-carboxamide]	> 64 µM	> 64 µM	> 64 µM	Anti-TB activity against M. tuberculosis H37Ra in words [1]: loss of activity

Source: paper PMC9050811 (RSC Advances, 2020)
